According to patent US6440440B1, “Biocidal benzylbiphenyl derivatives” (priority 1998, dated 2002):

How the values were obtained:
Assay type in all cases: cell-based
Escherichia coli = assay: Primary bacteria screening; set-up: key: score: 3 = complete inhibition of growth, 2 = growth partially controlled; details: test compound concentration 500 μMol in tryptose broth agar, 27° C.
Description: (§1) The stock solutions with the test compounds were pipetted into multiwell plates and mixed with warm tryptose broth agar (2.6%) in order to reach a test compound concentration of 500 μMol. The medium was allowed to cool and subsequently inoculated with the bacteria. Wells were placed in an incubator at 27° C. and a relative humidity of 70%. After sufficient growth of the untreated cultures, the test was evaluated.
(§2) 3: complete inhibition of bacterial growth
(§3) 2: bacterial growth partially controlled

Pseudomonas aeruginosa = assay: Primary bacteria screening; set-up: key: score: 3 = complete inhibition of growth, 2 = growth partially controlled; details: test compound concentration 500 μMol in tryptose broth agar, 27° C.
Description: as §1, §2, §3

Rhodotorula rubra [1] = assay: Screening against yeasts; set-up: key: 3 = complete inhibition of growth, 2 = growth partially controlled; details: test compound concentration 500 μmol
Description: as §1, §2, §3
(§4) A number of compounds of formula (I) were also tested in a screening against certain The test conditions are the same as described in biological example C.1. The concentration of the test compound was also 500 μmol, and the scoring system used was also the same.

Providencia rettgeri = assay: Poison plate assay, combinations with BAC; details: for Calculated activity: Limpel's formula
Description: (§5) Biocidal activity against bacterial/yeast growth was determined with the poison plate assay. To obtain the required concentrations of the test compound, calculated amounts of stock solutions (DMSO) were pipetted into multi-well plates. Tryptose agar (except for Rhodotorula: PDA) was added aseptically and uniform distribution was obtained by shaking. Each plate was inoculated with a bacterial/yeast suspension. After incubation at 27° C. and 70% relative humidity, for a period long enough to allow complete growth of controls, percentage activity as compared to the control was scored.
(§6) Possible synergy was investigated using Limpel's formula (Richter, D. L., Pestic. Sci. 1987, 19: 309-315): [formula]
(§7) where EC is the expected additive response, or calculated activity, X is the observed percentage control when compound A is applied alone and Y is the observed percentage control when compound B is applied alone. Synergy was considered to occur when the observed effect, or measured activity, of a combination of both compounds was greater than the corresponding EC value.
The table C.7 to C.8 below enumerate the measured and calculated activities of BAC and compounds 20, 42 and 40 when tested as a single test compound or as a combination against Providencia rettgeri. BAC (benzalconium chloride) is a well-bacteride and was tested at a concentration of 40 and 80 μmol. Compounds 20, 40 and 42 were tested at a concentration of 10, 20, 40, 80 and 160 μmol. When a synergistic effect was observed, the “measured” and “calculated” activity are indicated with a bold typeface.

Sporobolomyces roseus = assay: Screening against yeasts; set-up: key: 3 = complete inhibition of growth, 2 = growth partially controlled; details: test compound concentration 500 μmol
Description: as §1, §2, §3, §4
Sporobolomyces roseus (21)

Cellulomonas flavigena = assay: Poison plate assay, synergistic effect in combinations with BIT; details: for Calculated activity: Limpel's formula
Description: as §5, §6, §7
(§8) The table C.4 to C.6 below enumerate the measured and calculated activities of BIT and compounds 20, 42 and 40 when tested as a single test compound or as a combination against Rhodotorula rubra or Cellulomonas flavigena. BIT (1,2-benzisothiazol-3(2H)-one) is a well-known bacteride and was tested at a concentration of 25 and 50 μmol. Compounds 20, 40 and 42 were tested at a concentration of 25, 50 and 75 μmol. When a synergistic effect was observed, the “measured” and “calculated” activity are indicated with a bold typeface.

Rhodotorula rubra [2] = assay: as above; details: for Calculated activity: Limpel's formula
Description: as §5, §6, §7, §8

Debaryomyces hansenii = assay: Screening against yeasts; set-up: key: 3 = complete inhibition of growth, 2 = growth partially controlled; details: test compound concentration 500 μM
Description: as §1, §2, §3, §4
Debaryomyces hansenii (19)

[3] = BAC 40 μmol + compound 160 μmol
[4] = BAC 80 μmol + compound 160 μmol
[5] = combination BAC 40 μmol + compound 10 μmol
[6] = combination BAC 40 μmol + compound 20 μmol
[7] = combination BAC 40 μmol + compound 40 μmol
[8] = combination BAC 40 μmol + compound 80 μmol
[9] = combination BAC 40 μmol + compound 160 μmol
[10] = combination BAC 80 μmol + compound 10 μmol
[11] = combination BAC 80 μmol + compound 20 μmol
[12] = combination BAC 80 μmol + compound 40 μmol
[13] = combination BAC 80 μmol + compound 80 μmol
[14] = combination BAC 80 μmol + compound 160 μmol
[15] = combination BIT 25 μmol + compound 25 μmol
[16] = combination BIT 25 μmol + compound 50 μmol
[17] = combination BIT 25 μmol + compound 75 μmol
[18] = combination BIT 50 μmol + compound 25 μmol
[19] = combination BIT 50 μmol + compound 50 μmol
[20] = combination BIT 50 μmol + compound 75 μmol

`Cl.Cl.O.c1ccc(-c2ccc(C(c3ccccc3)C3CCN(C4CCNCC4)CC3)cc2)cc1` (racemic) [Co. No. 20, (±)-4-[[(1,1′-biphenyl)-4-yl]phenylmethyl](1,4′-bipiperidine)dihydrochloride monohydrate] was tested, and the “E. coli (growth inhibition score)” value (Escherichia coli) was 3, the “P. aeruginosa (growth inhibition score)” value (Pseudomonas aeruginosa) was 3 and the “Test yeast (20) Rhodotorula rubra (score)” value (Rhodotorula rubra [1]) was 3. For the same molecule, the Calculated activity (Providencia rettgeri; BAC 40 μmol + compound 10 μmol) was 0%, the Calculated activity (Providencia rettgeri; BAC 40 μmol + compound 20 μmol) was 0% and the Calculated activity (Providencia rettgeri; BAC 40 μmol + compound 40 μmol) was 30%. It also gave a Calculated activity (Providencia rettgeri; BAC 40 μmol + compound 80 μmol) of 90%, a Calculated activity (Providencia rettgeri; [3]) of 100% and a Calculated activity (Providencia rettgeri; BAC 80 μmol + compound 10 μmol) of 100%. The Calculated activity (Providencia rettgeri; BAC 80 μmol + compound 20 μmol) was 100%, the Calculated activity (Providencia rettgeri; BAC 80 μmol + compound 40 μmol) was 100% and the Calculated activity (Providencia rettgeri; BAC 80 μmol + compound 80 μmol) was 100%. The Calculated activity (Providencia rettgeri; [4]) was 100%, the Measured activity (Providencia rettgeri; [5]) was 50% and the Measured activity (Providencia rettgeri; [6]) was 50%. For the same molecule, the Measured activity (Providencia rettgeri; [7]) was 100%, the Measured activity (Providencia rettgeri; [8]) was 100% and the Measured activity (Providencia rettgeri; [9]) was 100%. For the same molecule, the Measured activity (Providencia rettgeri; [10]) was 100%, the Measured activity (Providencia rettgeri; [11]) was 100% and the Measured activity (Providencia rettgeri; [12]) was 100%. It also gave a Measured activity (Providencia rettgeri; [13]) of 100%, a Measured activity (Providencia rettgeri; [14]) of 100% and a Measured activity (Providencia rettgeri; compound alone 10 μmol) of 0%. The Measured activity (Providencia rettgeri; compound alone 20 μmol) was 0%, the Measured activity (Providencia rettgeri; compound alone 40 μmol) was 30% and the Measured activity (Providencia rettgeri; compound alone 80 μmol) was 90%. For the same molecule, the Measured activity (Providencia rettgeri; compound alone 160 μmol) was 100%, the “Test yeast (21) Sporobolomyces roseus (score)” value (Sporobolomyces roseus) was 3 and the Calculated activity (Cellulomonas flavigena; BIT 25 μmol + compound 25 μmol) was 0%. For the same molecule, the Calculated activity (Cellulomonas flavigena; BIT 25 μmol + compound 50 μmol) was 0%, the Calculated activity (Cellulomonas flavigena; BIT 25 μmol + compound 75 μmol) was 0% and the Calculated activity (Cellulomonas flavigena; BIT 50 μmol + compound 25 μmol) was 100%. For the same molecule, the Calculated activity (Cellulomonas flavigena; BIT 50 μmol + compound 50 μmol) was 100%, the Calculated activity (Cellulomonas flavigena; BIT 50 μmol + compound 75 μmol) was 100% and the Measured activity (Cellulomonas flavigena; [15]) was 0%. The Measured activity (Cellulomonas flavigena; [16]) was 100%, the Measured activity (Cellulomonas flavigena; [17]) was 95% and the Measured activity (Cellulomonas flavigena; [18]) was 100%. The Measured activity (Cellulomonas flavigena; [19]) was 100%, the Measured activity (Cellulomonas flavigena; [20]) was 100% and the Measured activity (Cellulomonas flavigena; compound alone 25 μmol) was 0%. For the same molecule, the Measured activity (Cellulomonas flavigena; compound alone 50 μmol) was 0%, the Measured activity (Cellulomonas flavigena; compound alone 75 μmol) was 0% and the Calculated activity (Rhodotorula rubra [2]; BIT 25 μmol + compound 25 μmol) was 0%. For the same molecule, the Calculated activity (Rhodotorula rubra [2]; BIT 25 μmol + compound 50 μmol) was 0%, the Calculated activity (Rhodotorula rubra [2]; BIT 25 μmol + compound 75 μmol) was 0% and the Calculated activity (Rhodotorula rubra [2]; BIT 50 μmol + compound 25 μmol) was 0%. It also gave a Calculated activity (Rhodotorula rubra [2]; BIT 50 μmol + compound 50 μmol) of 0%, a Calculated activity (Rhodotorula rubra [2]; BIT 50 μmol + compound 75 μmol) of 0% and a Measured activity (Rhodotorula rubra [2]; [15]) of 0%. For the same molecule, the Measured activity (Rhodotorula rubra [2]; [16]) was 100%, the Measured activity (Rhodotorula rubra [2]; [17]) was 100% and the Measured activity (Rhodotorula rubra [2]; [18]) was 100%. It also gave a Measured activity (Rhodotorula rubra [2]; [19]) of 100%, a Measured activity (Rhodotorula rubra [2]; [20]) of 100% and a Measured activity (Rhodotorula rubra [2]; compound alone 25 μmol) of 0%. The Measured activity (Rhodotorula rubra [2]; compound alone 50 μmol) was 0%, the Measured activity (Rhodotorula rubra [2]; compound alone 75 μmol) was 0% and the “Test yeast (19) Debaryomyces hansenii (score)” value (Debaryomyces hansenii) was 3.
Molecule `O=c1[nH]sc2ccccc12` [BIT, 1,2-benzisothiazol-3(2H)-one, reference compound] has a Measured activity (Cellulomonas flavigena; BIT alone 25 μmol) of 0%, a Measured activity (Cellulomonas flavigena; BIT alone 50 μmol) of 100% and a Measured activity (Rhodotorula rubra [2]; BIT alone 25 μmol) of 0%. The Measured activity (Rhodotorula rubra [2]; BIT alone 50 μmol) was 0%.
`Cl.Cl.NCCCNCCC(c1ccccc1)c1ccc(-c2ccccc2)cc1` (stereo not shown) [Co. No. 40] was tested, and the “E. coli (growth inhibition score)” value (Escherichia coli) was 3, the “P. aeruginosa (growth inhibition score)” value (Pseudomonas aeruginosa) was 3 and the “Test yeast (20) Rhodotorula rubra (score)” value (Rhodotorula rubra [1]) was 3. It also gave a Calculated activity (Providencia rettgeri; BAC 40 μmol + compound 10 μmol) of 50%, a Calculated activity (Providencia rettgeri; BAC 40 μmol + compound 20 μmol) of 50% and a Calculated activity (Providencia rettgeri; BAC 40 μmol + compound 40 μmol) of 95%. For the same molecule, the Calculated activity (Providencia rettgeri; BAC 40 μmol + compound 80 μmol) was 100%, the Calculated activity (Providencia rettgeri; [3]) was 100% and the Calculated activity (Providencia rettgeri; BAC 80 μmol + compound 10 μmol) was 100%. For the same molecule, the Calculated activity (Providencia rettgeri; BAC 80 μmol + compound 20 μmol) was 100%, the Calculated activity (Providencia rettgeri; BAC 80 μmol + compound 40 μmol) was 100% and the Calculated activity (Providencia rettgeri; BAC 80 μmol + compound 80 μmol) was 100%. For the same molecule, the Calculated activity (Providencia rettgeri; [4]) was 100%, the Measured activity (Providencia rettgeri; [5]) was 100% and the Measured activity (Providencia rettgeri; [6]) was 100%. For the same molecule, the Measured activity (Providencia rettgeri; [7]) was 100%, the Measured activity (Providencia rettgeri; [8]) was 100% and the Measured activity (Providencia rettgeri; [9]) was 100%. It also gave a Measured activity (Providencia rettgeri; [10]) of 100%, a Measured activity (Providencia rettgeri; [11]) of 100% and a Measured activity (Providencia rettgeri; [12]) of 100%. It also gave a Measured activity (Providencia rettgeri; [13]) of 100%, a Measured activity (Providencia rettgeri; [14]) of 100% and a Measured activity (Providencia rettgeri; compound alone 10 μmol) of 0%. It also gave a Measured activity (Providencia rettgeri; compound alone 20 μmol) of 0%, a Measured activity (Providencia rettgeri; compound alone 40 μmol) of 90% and a Measured activity (Providencia rettgeri; compound alone 80 μmol) of 100%. The Measured activity (Providencia rettgeri; compound alone 160 μmol) was 100%, the “Test yeast (21) Sporobolomyces roseus (score)” value (Sporobolomyces roseus) was 3 and the “Test yeast (19) Debaryomyces hansenii (score)” value (Debaryomyces hansenii) was 3.
With `Cl.Cl.NCCCN1CCC(C(c2ccccc2)c2ccc(-c3ccccc3)cc2)CC1.O` (stereo not shown) [Co. No. 42] the “E. coli (growth inhibition score)” value (Escherichia coli) was 3, the “P. aeruginosa (growth inhibition score)” value (Pseudomonas aeruginosa) was 3 and the “Test yeast (20) Rhodotorula rubra (score)” value (Rhodotorula rubra [1]) was 3. It also gave a Calculated activity (Providencia rettgeri; BAC 40 μmol + compound 10 μmol) of 0%, a Calculated activity (Providencia rettgeri; BAC 40 μmol + compound 20 μmol) of 0% and a Calculated activity (Providencia rettgeri; BAC 40 μmol + compound 40 μmol) of 30%. It also gave a Calculated activity (Providencia rettgeri; BAC 40 μmol + compound 80 μmol) of 90%, a Calculated activity (Providencia rettgeri; [3]) of 100% and a Calculated activity (Providencia rettgeri; BAC 80 μmol + compound 10 μmol) of 100%. The Calculated activity (Providencia rettgeri; BAC 80 μmol + compound 20 μmol) was 100%, the Calculated activity (Providencia rettgeri; BAC 80 μmol + compound 40 μmol) was 100% and the Calculated activity (Providencia rettgeri; BAC 80 μmol + compound 80 μmol) was 100%. It also gave a Calculated activity (Providencia rettgeri; [4]) of 100%, a Measured activity (Providencia rettgeri; [5]) of 50% and a Measured activity (Providencia rettgeri; [6]) of 50%. For the same molecule, the Measured activity (Providencia rettgeri; [7]) was 100%, the Measured activity (Providencia rettgeri; [8]) was 100% and the Measured activity (Providencia rettgeri; [9]) was 100%. It also gave a Measured activity (Providencia rettgeri; [10]) of 100%, a Measured activity (Providencia rettgeri; [11]) of 100% and a Measured activity (Providencia rettgeri; [12]) of 100%. It also gave a Measured activity (Providencia rettgeri; [13]) of 100%, a Measured activity (Providencia rettgeri; [14]) of 100% and a Measured activity (Providencia rettgeri; compound alone 10 μmol) of 0%. It also gave a Measured activity (Providencia rettgeri; compound alone 20 μmol) of 0%, a Measured activity (Providencia rettgeri; compound alone 40 μmol) of 30% and a Measured activity (Providencia rettgeri; compound alone 80 μmol) of 90%. For the same molecule, the Measured activity (Providencia rettgeri; compound alone 160 μmol) was 100%, the “Test yeast (21) Sporobolomyces roseus (score)” value (Sporobolomyces roseus) was 3 and the “Test yeast (19) Debaryomyces hansenii (score)” value (Debaryomyces hansenii) was 3.
